According to US20030187056A1, “Live cell procedures to identify to identify compounds modulating intracellular distribution of phosphodiesterase( pde) enzymes” (priority 2000, published 2003):
Values joined by “and” are separate entries in the source; they are usually repeats but may differ in a detail not shown here. Identical values can stand only once. “Also recorded” adds a separate entry of the source. Like-named read-outs stand apart in the source and are kept apart here.

Columns and labels:
HSPDE4A4-EGFP [1] = target: T1, HSPDE4A4-EGFP (Homo sapiens, UniProt P27815); experiment: Dispersal of preformed Rolipram-induced spots, HSPDE4A4-EGFP CHO cells; assay type: cell-based
T1 construct: expressed in transfected cells
Method: For the microscopic assessment of spot dispersal, stably transfected (non-clonal) cells transfected with the HSPDE4A4-EGFP probe are allowed to adhere to chambered coverglasses in HAM's F12 medium containing 10% FBS. […] Chambered coverglasses are then transferred to a Zeiss 135 inverted microscope for time lapse imaging as described in Example 2, above. At a given point after starting an experiment, a mixture of IBMX and forskolin is added to give final concentrations of 1 mM and 50 μM, respectively. Images are captured at regular intervals to form a time lapse sequence of the response, also as described in Example 2.
The plate is then run in the FLIPR system at 37° C., with addition of IBMX and forskolin to all wells at final concentrations of 500 μM and 50 μM respectively after the first minute. The experiment is continued for a further 45 minutes, readings being taken at intervals of 1 minute.
Non-clonal CHO cells stably transfected with the HSPDE4A4-EGFP probe are allowed to adhere to chambered coverglasses in HAM's F12 medium containing 10% FBS and to grow for 24 hours.
Clonal CHO cells stably transfected with the HSPDE4A4-EGFP probe are allowed to adhere to chambered coverglasses in HAM's F12 medium containing 10% FBS and to grow for 5 days without change of medium, which by this time is serum-depleted.
Individual wells are then treated with either 50 μM forskolin plus 500 μM IBMX or 200 nM PMA plus 2 μM ionomycin.

[2] = test system: cAMP-dependent protein kinases (PKA); details: cited from earlier work
HSPDE4A4-EGFP [3] = experiment: Formation of small spots in serum-depleted Rolipram-treated HSPDE4A4-EGFP CHO cells; assay type: cell-based, Homo sapiens; details: 1 or 2 μM ionomycin, KRW buffer with 2 μM Rolipram
Method: Clonal CHO cells stably transfected with the HSPDE4A4-EGFP probe are allowed to adhere to chambered coverglasses in HAM's F12 medium containing 10% FBS and to grow for 4 days without change of medium. […] At the end of this time approximately 95% of the cells contain bright spots when viewed on a fluorescence microscope.
Individual wells are then treated first with 1 or 2 μM ionomycin, and then a short time later with 50 μM forskolin plus 500 μM IBMX. Within 1 minute of treatment with ionomycin, at either 1 or 2 μM, small spots form in the cytoplasm of the cells (FIGS. 32a and 32b). This occurs in nearly all cells, whether they contain large Rolipram-induced spots or not. Large spots are not affected in any way during the formation of the smaller spots. The small spots will spontaneously disappear within 10 to 20 minutes. Application of forskolin plus IBMX clears them within minutes (FIG. 33a). The larger spots also disperse in time with this treatment, but more slowly (FIG. 33b). The formation of small spots will not occur in serum-replete cells, or in starved cells that then have been given 10% serum for more than 45 minutes. […] The time course of transient appearance of the small spots of the HSPDE4A4-EGFP probe is consistent with that of the Ca^2+ transient generally elicited by ionomycin in treated cells.

PDE3 [4] = experiment: PDE3 inhibition (literature values, PDE3/PDE4 specificity); assay type: biochemical; details: measure of specificity
Source text: These compounds are termed specific to PDE4, since they inhibit other PDEs either weakly or not at all. The inverse ratio between IC50 of a compound to PDE4s versus its inhibition of other cAMP-degrading PDEs, such as PDE3s is often used as a measure of specificity.

PDE4A probes = experiment: Redistribution of the PDE4A probes (summary); assay type: cell-based; details: for redistribution of the PDE4A probes: compound alone
HSPDE4A4-EGFP [5] = target: T1, HSPDE4A4-EGFP; experiment: Spot formation in CHO cells transfected with HSPDE4A4-EGFP; assay type: cell-based; details: for formation of spots, compound alone (in words): observed up to 24 hours
Method: Chinese hamster ovary cells (CHO), are transfected with the plasmids described in Example 1 above using the transfection agent FuGENE™ 6 (Boehringer Mannheim Corp, USA) according to the method recommended by the suppliers. Stable transfectants are selected using 1 mg/ml G418 sulphate (Calbiochem) in the growth medium (HAM's F12 nutrient mix with Glutamax-1, 10% foetal bovine serum (FBS), 100 μg penicillin-streptomycin mixture ml^−1 (GibcoBRL, supplied by Life Technologies, Denmark). Cell are cultured at 37° C. in 100% humidity and conditions of normal atmospheric gases supplemented with 5% CO2.
For fluorescence microscopy, cells are allowed to adhere to Lab-Tek chambered coverglasses (Nalge Nunc International, Naperville USA) for at least 24 hours and are then cultured to about 80% confluence. Cells can also be grown in plastic 96-well plates (Polyfiltronics Packard 96-View Plate or Costar Black Plate, clear bottom; both types tissue culture treated) for imaging purposes. Prior to experiments, the cells are cultured over night without G418 sulphate in HAM F-12 medium with glutamax, 100 μg penicillin-streptomycin mixture ml^−1 and 10% FBS. This medium has low autofluorescence enabling fluorescence microscopy of cells straight from the incubator. For certain tests requiring medium of defined composition, particularly with regard to the presence of specific cell growth factors, the HAM's culture medium is replaced prior to imaging with a buffered saline solution (KRW buffer) containing (in mM) 3.6 KCl, 140 NaCl, 2 NaHCO3, 0.5 NaH2PO4, 0.5 MgSO4, 1.5 CaCl2, 10 Hepes, 5 glucose, pH7.4.
Changes in cellular distribution of a transfected probe can be imaged and quantified in an automated fashion. For this purpose cells are cultured to near 80% to 90% confluence in coverglass chambers or plastic 96-well plates, given the relevant treatment and allowed to respond. At the end of the response period, cells are fixed in 4% formaldehyde buffer (Lillies fixative buffer, pH7.0: Bie and Berntsen A/S, Denmark) for 30 minutes to 2 hours, then washed in phosphate buffered saline (PBS, Life Technologies, Denmark). Nuclear DNA is stained with 1 μM Hoechst 33258 (Molecular Probes, Eugene, Oreg., USA) in PBS for 10 minutes at 25° C., then washed twice in PBS. Automated images are collected on a Nikon Diaphot 300 (Nikon, Japan) using a Nikon Plan Fluor 20X/0.5NA objective lens. The basic microscope is fitted with a motorised specimen stage and motorised focus control (Prior Scientific, Fulbourn, Cambridge UK), excitation filter wheel (Sutter Instruments, Novato Calif. USA) and Photometrics PXL series camera with a KAF1400 CCD chip (Photometrics, Tucson, Ariz. USA), each of these items being under the control of an Macintosh 7200/90 computer (Apple Computer, Cupertino, Calif. USA). Automation of stage positioning, focus, excitation filter selection, and image acquisition is performed using macros written in-house, running under IPLab Spectrum for Macintosh (Scanalytics, Fairfax, Va. USA). Fluorescence illumination comes from a 100 W HBO lamp. Images are collected in pairs, the first using a 340/10 nm excitation filter, the second with a 475RDF40 excitation filter (Chroma, Brattleboro, Vt.). Both images are collected via the same dichroic and emission filters, which are optimised for EGFP applications (XF100 filter set, Omega Optical, Brattleboro, Vt.). While the choice of filters for imaging the nuclear stain (Hoechst 33258) is not well matched to that dye's spectral properties, resulting in lower image intensity, it greatly improves the throughput of the procedure by allowing both images to be collected using the same dichroic and emission filter. This eliminates any image registration problems and focus shifts which would result from using two different filter sets, which would require more steps in the acquisition procedure and more extensive image processing to overcome.

HSPDE4A1-EGFP [6] = target: T2, HSPDE4A1-EGFP (Homo sapiens, UniProt P27815); experiment: Spot dispersal in CHO cells transfected with HSPDE4A1-EGFP; assay type: cell-based; details: for dispersal of PDE4A1 spots (in words): Rolipram 2 micromolar 2 hours, others over the ranges tested
T2 construct: the ca. 1.95 kb coding region of HSPDE4A1 (GenBank Acc.no. U97584) is amplified; expressed in transfected cells
Method: (§1) […] The cells are then fixed with 4% formalin buffer (pH7) for 1 hour, washed with PBS and stained with 1 μM Hoechst 33258 in PBS for 10 minutes at 25° C., then washed twice in PBS. Automated images are collected and analysed for the number of spots per cell as described in Example 2.
as §1

PDE4 [7] = details: cited from earlier work
[8] = test system: high affinity Rolipram binding site (HARBS); details: Data from Souness and Rao, 1997; cited from earlier work
[9] = target: T3, high affinity Rolipram binding site (HARBS); details: read-out: Displacement of [3H] Rolipram (i: μM); Data from Souness and Rao, 1997; cited from earlier work
T3 construct: Displacement of [3H]; Rolipram (i: μM); other: Data from Souness and Rao, 1997

HSPDE4A4-EGFP [10] = target: T1, HSPDE4A4-EGFP; experiment: Competitive spot assay: inhibition of Rolipram- or RS25344-induced spot formation, HSPDE4A4-EGFP CHO cells; assay type: cell-based
Method: (§2) The cells are then fixed with 4% formaldehyde buffer (pH7) for 1 hour, washed with PBS and stained with 1 μM Hoechst 33258 in PBS for 10 minutes at 25° C., then washed twice in PBS. Automated images are collected and analysed for the number of spots per cell as described in Example 2.
as §2

PDE3 [11] = details: cited from earlier work
HSPDE4A1-EGFP [12] = target: T2, HSPDE4A1-EGFP; experiment: Competitive assay: reversal of Rolipram-induced spot dispersal, HSPDE4A1-EGFP CHO cells; assay type: cell-based; details: yes/no
PDE4 [13] = test system: T4, PDE4; details: Saldou et al., 1998; read-out: IC50 against PDE4; cited from earlier work
T4 construct: other: Saldou et al., 1998; Such an enzyme preparation may be obtained from cells transfected with and expressing the PDE4 enzyme chosen

[14] = human, in vivo; cited from earlier work
[15] = Data from Souness and Rao, 1997, read-out: PDE4 inhibition (IC50: μM)

T2 sequence (P27815 1-647 isoform P27815-4): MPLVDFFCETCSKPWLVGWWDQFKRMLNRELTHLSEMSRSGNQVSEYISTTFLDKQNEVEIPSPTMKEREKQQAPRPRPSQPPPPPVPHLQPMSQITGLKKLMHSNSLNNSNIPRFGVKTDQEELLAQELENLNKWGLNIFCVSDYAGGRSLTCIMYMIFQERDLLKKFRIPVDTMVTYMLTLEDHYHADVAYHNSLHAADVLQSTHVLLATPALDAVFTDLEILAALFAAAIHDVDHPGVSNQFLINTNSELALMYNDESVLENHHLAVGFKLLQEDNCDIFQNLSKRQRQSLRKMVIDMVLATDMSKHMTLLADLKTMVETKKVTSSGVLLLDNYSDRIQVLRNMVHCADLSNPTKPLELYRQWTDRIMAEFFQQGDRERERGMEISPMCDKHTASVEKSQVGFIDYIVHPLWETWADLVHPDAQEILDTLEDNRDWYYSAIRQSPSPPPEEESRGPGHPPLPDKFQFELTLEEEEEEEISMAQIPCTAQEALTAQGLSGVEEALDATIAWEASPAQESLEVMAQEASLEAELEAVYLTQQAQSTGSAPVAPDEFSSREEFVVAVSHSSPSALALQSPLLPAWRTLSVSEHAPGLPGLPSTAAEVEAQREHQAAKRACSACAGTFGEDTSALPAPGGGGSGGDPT
T1 sequence (P27815 whole entry): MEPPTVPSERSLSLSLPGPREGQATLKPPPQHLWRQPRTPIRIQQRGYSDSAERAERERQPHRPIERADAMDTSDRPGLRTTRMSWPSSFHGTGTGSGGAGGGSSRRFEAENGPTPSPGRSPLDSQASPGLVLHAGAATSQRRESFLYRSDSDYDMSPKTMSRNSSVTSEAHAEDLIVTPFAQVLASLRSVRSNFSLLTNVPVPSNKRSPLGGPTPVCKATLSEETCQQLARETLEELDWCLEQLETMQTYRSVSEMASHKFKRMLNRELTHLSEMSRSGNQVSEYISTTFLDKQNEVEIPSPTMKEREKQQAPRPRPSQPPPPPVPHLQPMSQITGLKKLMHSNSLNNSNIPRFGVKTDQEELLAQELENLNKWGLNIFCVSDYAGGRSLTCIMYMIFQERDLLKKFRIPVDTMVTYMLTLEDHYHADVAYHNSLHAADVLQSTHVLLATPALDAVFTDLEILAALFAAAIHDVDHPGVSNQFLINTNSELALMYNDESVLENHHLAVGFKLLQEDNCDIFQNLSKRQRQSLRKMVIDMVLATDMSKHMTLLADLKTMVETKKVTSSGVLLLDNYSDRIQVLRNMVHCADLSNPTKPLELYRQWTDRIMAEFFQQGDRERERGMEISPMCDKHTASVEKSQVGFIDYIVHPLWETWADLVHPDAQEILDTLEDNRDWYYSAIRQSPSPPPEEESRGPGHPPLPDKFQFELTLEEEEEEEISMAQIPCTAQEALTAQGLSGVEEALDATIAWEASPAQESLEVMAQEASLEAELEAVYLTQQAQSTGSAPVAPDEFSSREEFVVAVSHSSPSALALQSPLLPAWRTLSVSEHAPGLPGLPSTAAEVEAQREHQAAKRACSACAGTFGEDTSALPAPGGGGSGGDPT

## O=S(=O)(NCCNC/C=C/c1ccc(Br)cc1)c1cccc2cnccc12 [H-89]
HSPDE4A4-EGFP [1]; FLIPR, 2 micromolar H-89 pre-treatment 20 minutes
  effect on the dispersal of spots induced by IBMX plus forskolin: significant effect on the dispersal of spots
[2]
  IC50: ~0.05 µM

## C[C@H](CCC(=O)O)C[C@H](C)C[C@H](C)C(=O)/C=C(\O)[C@H](C)C[C@H](C)C/C=C/[C@@H](C)[C@@H](O)[C@@H](C)[C@@H](O)C[C@@H]1CC[C@@](C)([C@H]2CC[C@@](C)([C@@H](C)O)O2)O1 [ionomycin]
HSPDE4A4-EGFP [1]; 2 μM ionomycin 50-55 minutes with 2 μM Rolipram, non-clonal, 10% FBS (control 70%)
  cells with bright spots remaining: 20-40% and 20 to 40%
HSPDE4A4-EGFP [1]; FBS-replete cells, 200 nM PMA, 2 μM ionomycin, or 50 μM forskolin plus 1 mM IBMX
  dispersal of Rolipram-induced spots (in words): slowly and in an incomplete manner
HSPDE4A4-EGFP [3]
  time to formation of small spots in the cytoplasm: ≤ 1 min

## COc1cc2c(cc1OC)-c1cc(=Nc3c(C)cc(C)cc3C)n(C)c(=O)n1CC2 [Trequinsin, 9,10-dimethoxy-2-mesitylimino-3-methyl-3,4,6,7-tetrahydro-2H-pyrimido[6,1-a]isoquinolin-4-one]
PDE3 [4]
  (IC50 PDE3)/(IC50 PDE4): 0.00041
PDE4A probes
  redistribution of the PDE4A probes: no redistribution
HSPDE4A4-EGFP [5]
  formation of spots, compound alone (in words): Neither compound causes formation of spots
HSPDE4A1-EGFP [6]
  dispersal of PDE4A1 spots (in words): no significant spot dispersal
PDE4 [7]; [15]
  IC50: 0.4 µM
PDE4 [7]; literature values quoted in Example 5 (Saldou 1998; Ahluwalia 1982; Rubin 1991), read-out: IC50 against PDE4
  IC50: 1 µM
[8]
  PDE4/HARBS, ratio (IC50 PDE4)/(Ki for HARBS): 023
[9]
  Ki: 1.7 µM

## CN(C(=O)CCCOc1ccc2[nH]c(=O)ccc2c1)C1CCCCC1 [cilostamide]
PDE4A probes
  redistribution of the PDE4A probes: no redistribution
HSPDE4A4-EGFP [5]
  formation of spots, compound alone (in words): do not produce spots
HSPDE4A4-EGFP [10]; 500 μM theophylline, 100 μM caffeine, 10 μM milrinone, 0.5 μM cilostamide, 100 μM zaprinast
  effect on spot formation by 2 μM Rolipram (in words): form the same number and type of bright spots
PDE3 [11]
  IC50: 0.07 µM

## COc1ccc(C(=O)Nc2c(Cl)cncc2Cl)cc1OC1CCCC1 [RP73401]
PDE4A probes
  redistribution of the PDE4A probes: induces no redistribution
PDE4A probes; in presence of Rolipram
  prevention of the redistribution caused by Rolipram: prevent the redistribution
HSPDE4A4-EGFP [5]
  formation of spots, compound alone (in words): produces no spots
HSPDE4A4-EGFP [5]; yes/no
  Formation of PDE4A4 spots: no
HSPDE4A4-EGFP [10]; 2 μM Rolipram plus 0.001 μM RP73401, 7.5 hours
  cells with spots: less than 5%
HSPDE4A4-EGFP [10]; 2 μM Rolipram plus 0.003 μM RP73401, 7.5 hours
  spot formation (in words): unable to elicit the production of any spots; also recorded: no spots formed in any of the cells
HSPDE4A4-EGFP [1]; spots formed by 2 μM Rolipram over 16 hours, 1 μM RP73401
  time for dispersal of spots: ≤ 10 min
HSPDE4A4-EGFP [1]; yes/no
  Removal of Rolipram-induced PDE4A4-spots: yes
HSPDE4A1-EGFP [6]
  dispersal of PDE4A1 spots (in words): does not disperse spots; also recorded: no significant spot dispersal
HSPDE4A1-EGFP [6]; yes/no
  Removal of PDE4A1 spots: no
HSPDE4A1-EGFP [12]
  Reversal of Rolipram-induced removal of PDE4A1 spots: yes
PDE4 [7]; [15]
  IC50: 0.0012 µM
PDE4 [7]; yes/no
  Inhibition of PDE4 catalytic activity: yes
PDE4 [13]
  IC50: 0.0003 µM
[9]
  Ki: 0.0004 µM
[14]
  Clinical effect: anti-
  Emesis: no
